Measurements taken from ChEMBL document CHEMBL5257097, “An Isomer of Galidesivir That Potently Inhibits Influenza Viruses and Members of the Bunyavirales Order” (ACS Med Chem Lett, 2023).

Columns and labels:
[1] = (§1) Selectivity index, ratio of CC50 for cytotoxicity against African green monkey Vero E6 cells infected with Maporal virus assessed as reduction in cell viability to EC90 for antiviral activity against Maporal virus infected in African green monkey Vero E6 cells assessed as reduction in viral yield; format: toxicity, cell-based, Vero C1008
Punta Toro virus [2] = experiment: Antiviral activity against Punta Toro virus infected in African green monkey Vero 76 cells assessed as inhibition of viral replication by visual analysis; format: functional, organism-based
[3] = (§2) Selectivity index, ratio of CC50 for cytotoxicity against dog MDCK cells infected with Influenza A virus H3N2 assessed as reduction in cell viability by visual analysis to EC90 for antiviral activity against Influenza A virus H3N2 infected in dog MDCK cells assessed as reduction in viral yield by visual analysis; format: toxicity, cell-based
[4] = Cytotoxicity against African green monkey Vero E6 cells infected with JUNV assessed as reduction in cell viability by neutral red dye based analysis; format: toxicity, Vero C1008; settings: chlorocebus sabaeus
La Crosse virus = experiment: Antiviral activity against La Crosse virus infected in African green monkey Vero E6 cells assessed as inhibition of viral replication by visual analysis; format: functional, organism-based; settings: Vero C1008
[5] = as §1, with “Severe fever with thrombocytopenia syndrome” for “Maporal”, “replication” for “yield”; format: toxicity, cell-based, Vero C1008
Pichinde virus = experiment: Antiviral activity against Pichinde virus infected in African green monkey Vero cells assessed as inhibition of viral replication by neutral red dye based analysis; format: functional, organism-based
Influenza A virus [6] = experiment: Antiviral activity against Influenza A virus H7N9 infected in dog MDCK cells assessed as inhibition of viral replication measured after 15 to 30 mins by neutral red dye based analysis; format: functional, organism-based
[7] = as §1, with “76” for “E6”, “Punta Toro” for “Maporal”, “viability by neutral red dye based analysis” for “viability”, “EC50” for “EC90”, “replication by neutral red dye based analysis” for “yield”; format: toxicity; settings: read-out: Ratio CC50/EC50
[8] = as §2, with “H1N1” for “H3N2”; format: toxicity, cell-based
[9] = (§3) Selectivity index, ratio of CC50 for cytotoxicity against dog MDCK cells infected with Influenza B virus assessed as reduction in cell viability by visual analysis to EC50 for antiviral activity against Influenza B virus infected in dog MDCK cells assessed as inhibition of viral replication by visual analysis; format: toxicity, cell-based; settings: read-out: Ratio CC50/EC50
Influenza A virus [10] = experiment: Antiviral activity against Influenza A virus H3N2 infected in dog MDCK cells assessed as reduction in virus yield measured after 3 days by visual analysis; format: functional; settings: 72 h, time 3 day
[11] = Cytotoxicity against African green monkey Vero E6 cells infected with Oropouche virus assessed as reduction in cell viability by neutral red dye based analysis; format: toxicity, Vero C1008; settings: chlorocebus sabaeus
[12] = Cytotoxicity against African green monkey Vero E6 cells infected with Rift Valley fever virus assessed as reduction in cell viability; format: toxicity, cell-based, Vero C1008; settings: chlorocebus sabaeus
[13] = Cytotoxicity against African green monkey Vero E6 cells infected with Severe fever with thrombocytopenia syndrome virus assessed as reduction in cell viability; format: toxicity, cell-based, Vero C1008; settings: chlorocebus sabaeus
Tacaribe virus = experiment: Antiviral activity against Tacaribe virus infected in African green monkey Vero cells assessed as inhibition of viral replication by visual analysis; format: functional, organism-based; settings: Mammarenavirus tacaribeense
[14] = as §1, with “Oropouche” for “Maporal”, “viability by neutral red dye based analysis” for “viability”, “EC50” for “EC90”, “replication by neutral red dye based analysis” for “yield”; format: toxicity, Vero C1008; settings: read-out: Ratio CC50/EC50
Influenza B virus [15] = experiment: Antiviral activity against Influenza B virus infected in dog MDCK cells assessed as inhibition of viral replication measured after 15 to 30 mins by neutral red dye based analysis; format: functional, organism-based
[16] = as §3, with “A” for “B”, “virus H7N9” for “virus”, “neutral red dye based” for “visual”; format: toxicity; settings: read-out: Ratio CC50/EC50
[17] = as §1, with “76” for “E6”, “MERS-CoV” for “Maporal virus”, “viability by visual analysis” for “viability”, “EC50” for “EC90”, “virus-induced cytopathic effect by visual analysis” for “viral yield”; format: toxicity, cell-based; settings: read-out: Ratio CC50/EC50
[18] = as §1, with “Lymphocytic choriomeningitis” for “Maporal”; format: toxicity, cell-based, Vero C1008
[19] = Cytotoxicity against African green monkey Vero cells infected with Tacaribe virus assessed as reduction in cell viability by visual analysis; format: toxicity, cell-based; settings: chlorocebus sabaeus
[20] = as §2, with “B” for “A”, “virus” for “virus H3N2”; format: toxicity, cell-based
Influenza A virus [21] = experiment: Antiviral activity against Influenza A virus H1N1 infected in dog MDCK cells assessed as inhibition of viral replication measured after 15 to 30 mins by visual analysis; format: functional, organism-based
[22] = Cytotoxicity against dog MDCK cells infected with Influenza A virus H1N1 assessed as reduction in cell viability by neutral red dye based analysis; format: toxicity, Canis lupus familiaris
[23] = Cytotoxicity against African green monkey Vero 76 cells infected with La Crosse virus assessed as reduction in cell viability by visual analysis; format: toxicity, cell-based; settings: chlorocebus sabaeus
[24] = Cytotoxicity against African green monkey Vero 76 cells infected with Punta Toro virus assessed as reduction in cell viability by neutral red dye based analysis; format: toxicity; settings: chlorocebus sabaeus
Punta Toro virus [25] = experiment: Antiviral activity against Punta Toro virus infected in African green monkey Vero 76 cells assessed as inhibition of viral replication by neutral red dye based analysis; format: functional, organism-based
[26] = as §3, with “A” for “B”, “virus H3N2” for “virus”; format: toxicity, cell-based; settings: read-out: Ratio CC50/EC50
Heartland virus = experiment: Antiviral activity against Heartland virus infected in African green monkey Vero E6 cells assessed as reduction in viral yield measured for 3 days; format: functional; settings: Vero C1008, 72 h, time 3 day
[27] = Cytotoxicity against dog MDCK cells infected with Influenza B virus assessed as reduction in cell viability by neutral red dye based analysis; format: toxicity, Canis lupus familiaris
dengue virus type 2 [28] = experiment: Antiviral activity against DENV-2 infected in African green monkey Vero cells assessed as reduction in virus-induced cytopathic effect measured after 15 to 30 mins by neutral red based analysis; format: functional, organism-based
[29] = Cytotoxicity against vervet monkey MA-104 cells infected with MERS-CoV assessed as reduction in cell viability by neutral red dye based assay; format: toxicity; settings: cercopithecus pygerythrus
dengue virus type 2 [30] = experiment: Antiviral activity against DENV-2 infected in African green monkey Vero cells assessed as reduction in virus-induced cytopathic effect measured after 15 to 30 mins by visual analysis; format: functional, organism-based
Marburgvirus = experiment: Antiviral activity against Marburg virus infected in human HeLa cells assessed as reduction in viral cytopathic effect; format: functional, organism-based; settings: Orthomarburgvirus
[31] = (§4) Selectivity index, ratio of CC50 for cytotoxicity against African green monkey Vero cells infected with DENV-2 assessed as reduction in cell viability by neutral red analysis to EC50 for antiviral activity against DENV-2 infected in human Huh-7 cells assessed as reduction in virus-induced cytopathic effect by neutral red analysis; format: toxicity, cell-based; settings: read-out: Ratio CC50/EC50
[32] = as §4, with “visual” for “neutral red”; format: toxicity, cell-based; settings: read-out: Ratio CC50/EC50
[33] = tested on: Middle East respiratory syndrome-related coronavirus; experiment: Antiviral activity against MERS-CoV infected in vervet monkey MA-104 cells assessed as reduction in virus-induced cytopathic effect measured after 15 to 30 mins by visual analysis; format: functional, organism-based; settings: MA104
Influenza B virus [34] = experiment: Antiviral activity against Influenza B virus infected in dog MDCK cells assessed as reduction in viral cytopathic effect; format: functional, organism-based
[35] = as §4, with “vervet” for “African green”, “MA-104” for “Vero”, “MERS-CoV” for “DENV-2”, “visual” for “neutral red”, “vervet monkey MA-104” for “human Huh-7”; format: toxicity, cell-based; settings: read-out: Ratio CC50/EC50

SMILES: Nc1ncnn2c([C@@H]3N[C@H](CO)[C@@H](O)[C@H]3O)ccc12
- selectivity ratio [1]: 15
- EC50 (Punta Toro virus [2]): 0.32 µM
- selectivity ratio [3]: 64
- CC50 [4]: 9.6 µM
- EC50 (La Crosse virus): < 0.1 µM
- selectivity ratio [5]: 49
- EC50 (Pichinde virus): 0.3 µM
- EC50 (Influenza A virus [6]): 0.39 µM
- selectivity ratio [7]: 37
- selectivity ratio [8]: 240
- selectivity ratio [9]: 38
- EC90 (Influenza A virus [10]): 0.25 µM
- CC50 [11]: 15 µM
- CC50 [12]: 8.6 µM
- CC50 [13]: 11 µM
- EC50 (Tacaribe virus): 0.37 µM
- selectivity ratio [14]: 75
- EC50 (Influenza B virus [15]): 0.26 µM
- selectivity ratio [16]: 77
- selectivity ratio [17]: 31
- selectivity ratio [18]: 80
- CC50 [19]: 12 µM
- selectivity ratio [20]: 50
- EC50 (Influenza A virus [21]): 0.32 µM
- CC50 [22]: 14 µM
- CC50 [23]: 24 µM
- CC50 [24]: 10 µM
- EC50 (Punta Toro virus [25]): 0.27 µM
- selectivity ratio [26]: 38
- EC90 (Heartland virus): 0.13 µM
- CC50 [27]: 9.8 µM

SMILES: Nc1ncnc2c([C@@H]3N[C@H](CO)[C@@H](O)[C@H]3O)c[nH]c12 [GALIDESIVIR]
- EC50 (dengue virus type 2 [28]): 15 µM
- CC50 [29]: > 100 µM
- EC50 (dengue virus type 2 [30]): 4.2 µM
- EC50 (Marburgvirus): 3 µM
- selectivity ratio [31]: > 6.7
- selectivity ratio [32]: > 24
- EC50 [33]: 32 µM
- EC50 (Influenza B virus [34]): 1 µM
- selectivity ratio [35]: > 2.8
